Measurements published in patent publication US20170319501A1, “Oral Pharmaceutical Dosage Forms” (DURECT CORPORATION, priority 2007, published 2017).

Key:
[1] = intravenous bolus dosing, human, open literature data; cited from earlier work
[2] = Preliminary in vitro volatilization test on hot plate (Example 4a); type: physicochemical; settings: 40 mg sample; for Oxycodone Collected (in mg), total: total of 4 time points
Source text: In order to further assess the abuse-resistance performance of the dosage forms of the present invention, the following in vitro volatilization test was developed. In particular, intentional abuse of controlled release pharmaceutical dosage forms may alternatively be carried out by volatilization (smoking, or free-basing) techniques that can liberate active agent (in immediately active form) from commercially available controlled release carrier systems. Accordingly, a preliminary in vitro volatilization test was developed in order to assess: (1) whether oxycodone free base was more volatile than the salt (HCl) form; and (2) whether the abuse-resistant dosage forms produced according to the instant invention can prevent inhalation abuse through volatilization.
Each petri dish was fitted with a watch glass as a cover, and the covered test dishes were placed on a hot plate (setting 10). After 30 seconds each watch glass was replaced with a fresh watch glass, and this step was repeated three times (to obtain 4 time points). Any residue deposited on the bottom side of the test watch glasses was carefully transferred with an Alpha Swab (TX 761) into 40/60 ethanol/0.005M HCl solution, and the concentration of oxycodone solution was determined by HPLC. The observations taken during the test were as follows. […] It was noted that vaporized drug (and solvents where present) escaped during each change of the watch glass, which may be at least partially responsible for the low recovery noted in the HPLC results below. […] The HPLC results obtained in this Example 4a are provided below in Table 30.

[3] = Thermal gravimetric analysis of oxycodone base and oxycodone HCl; type: physicochemical
Experimental: Initially, thermal gravimetric analysis was used to measure the weight loss of oxycodone base and oxycodone HC1 in order to determine the correct temperature to conduct the volatilization study. Oxycodone base was subjected to increasing temperature conditions (30 to 350° C.) at a ramping rate of 20° C./min. Vaporization occurred above 200° C. and was complete at 310° C. Vaporization of oxycodone HCl (28 to 400° C.) was analogous to that of the free base up to approximately 300° C. after which significant decomposition of the salt form occurred. Based on these observations, a temperature of 280° C. was selected for this study. This temperature is above the melting point of oxycodone (to ensure adequate drug vaporization) and below 300° C. (to limit decomposition of the salt form). A maximum exposure time of 10 minutes was selected based on pre-test observations that little additional oxycodone was recovered beyond that time point.

[4] = Solubility of the active agent in Triacetin and in water (stated); type: physicochemical

Structure (SMILES) | Oxycodone Collected ([2]; time point 0.5 minutes) [mg] | Oxycodone Collected ([2]; time point 1.0 minutes) [mg] | Oxycodone Collected ([2]; time point 1.5 minutes) [mg] | Oxycodone Collected ([2]; time point 2.0 minutes) [mg] | Oxycodone Collected (in mg), total [2] [mg] | solubility in Triacetin [4] | solubility in water [4] | further results
C[C@H](N)Cc1ccccc1 [d-amphetamine] | – | – | – | – | – | – | – | unit impulse response parameter A [1]: 98.3±6.01; unit impulse response parameter B [1]: 28.2±0.56; unit impulse response parameter α [1]: 9.65±0.64; unit impulse response parameter β [1]: 6.31×10^−2±3.78×10^−3
COc1ccc2c3c1O[C@H]1C(=O)CC[C@@]4(O)[C@@H](C2)N(C)CC[C@]314.Cl [oxycodone API (HCl salt form)] | 1.7202 | 0.4086 | 0.1236 | 0.0270 | 2.2794 | – | – | –
COc1ccc2c3c1O[C@H]1C(=O)CC[C@@]4(O)[C@@H](C2)N(C)CC[C@]314 [oxycodone API (free base form)] | 1.4730 | 7.2666 | 0.7356 | 0.7050 | 10.1802 | – | – | –
COc1ccc2c3c1O[C@H]1C(=O)CC[C@@]4(O)[C@@H](C2)N(C)CC[C@]314 [oxycodone free base, oxycodone] | – | – | – | – | – | high solubility in Triacetin | low water solubility | temperature above which vaporization occurred ([3]; ramping rate 20° C./min): above 200 °C; temperature at which vaporization was complete ([3]; ramping rate 20° C./min): 310 °C
COc1ccc2c3c1O[C@H]1C(=O)CC[C@@]4(O)[C@@H](C2)N(C)CC[C@]314.Cl [oxycodone in salt form, oxycodone HCl] | – | – | – | – | – | low solubility in Triacetin | high solubility in water | temperature after which significant decomposition occurred ([3]; 28 to 400° C.): approximately 300 °C
